# In patent publication US8445511B2, “Quinoline or quinoxaline derivatives for treating neurodegenerative diseases” (Centre National de la Recherche Scientifique (SNRS), priority 2008, dated 2013):
# System: fetal dopaminergic neurons in culture
# Test: Neuroprotection and differentiation of dopaminergic (TH+) neurons in primary culture of rat embryo mesencephalon (spontaneous degeneration model)
# Assay type: cell-based
# Design: key to Diff (qualitative assessment of neuron differentiation): + indicates that the neurons have a morphology similar to that of the control; ++ and +++ indicate the presence of neurons whose extensions are longer and more numerous than the control neurons; ++ and +++ indicate the presence of neurons whose extensions are longer and more numerous than the control neurons; − indicates that the neurons have neurites that are shorter and less numerous than the control neurons
# Conditions: for Diff (qualitative assessment of neuron differentiation): dopaminergic neurons in culture; for viability at 0.1 µM: Rattus norvegicus, Neuron, 192 h, read-out: % Neurons relative to the control ±SEM
# Protocol: Dissection consists in extracting the embryos from the uterus of a rat at fifteen days of gestation. The brain of each embryo is then dissected under a binocular magnifier in order to extract the ventral mesencephalon.
# The mesencephalons are gathered in a flask containing 2 ml of L15 medium and then mechanically dissociated (30 times), and then 5 ml of L15 medium are added. The suspension is left to rest for 8 minutes. 5 ml of the supernatant are recovered in a new flask and the cells are dissociated again (30 times). 5 ml of L15 are again added and the suspension is left to rest for 8 minutes. 5 ml of supernatant are added to the preceding. The cells thus extracted are then centrifuged for 5 minutes at 1,000 rpm. The cell pellet is taken up in Neurobasal medium supplemented with 1% B27, 1% glutamine and 1% penicillin/streptomycin mixture. The cells are then inoculated at the appropriate dilution (0.6 embryo per well on a 24-well plate and 0.4 per well on a 48-well plate). The cultures are incubated at 37° C. in a humid atmosphere enriched with 5% CO2 in a 24- or 48-well plate.
# After 24 hours, two-thirds of the medium of each well is replaced by new medium enriched with the compound of the invention to test at the appropriate dilution. The medium is replaced in the same way after 4 days of culture.
# At 8 days of culture, the cells are fixed by a 4% formaldehyde solution and then washed three times with PBS. The cells then undergo several immunohistochemistry procedures: • anti-tyrosine hydroxylase (TH) visualized by a secondary antibody coupled to a fluorochrome that emits in the red spectrum (Cy3). • anti-MAP2 (MAP=microtubule-associated protein) (neuron marker) visualized by a secondary antibody coupled to a fluorochrome that emits in the green spectrum (alexa488). • DAPI (4′,6-diamidino-2-phenylindole), a nuclear marker that emits in the blue spectrum.
# Neuroprotection is evaluated by counting TH positive neurons directly under the microscope or MAP2 positive on images, at 15 images per well, expressed as a percentage of the untreated control. The experiments include three wells per condition. Three independent experiments are carried out under these conditions. Total neurite length per cell calculated by the Neurite Outgrowth software by Explora Nova on 20 neurons photographed independently per well gives an indication of the state of maturation of the dopaminergic neurons.
# The compounds of the invention were tested on a model of spontaneous degeneration of dopaminergic neurons in culture.
# This model consists of culturing cells of the ventral mesencephalon of rat embryo. This part of the brain in culture contains dopaminergic neurons and other primarily GABAergic neurons. These cultures are also composed of glial cells, namely astrocytes, oligodendrocytes and microglia. This is a model of spontaneous degeneration of dopaminergic neurons which mimics certain aspects of Parkinson's disease.
# The neuroprotective effect of the compounds of the invention was evaluated by counting dopaminergic neurons (TH^+) marked by tyrosine hydroxylase (TH) immunohistochemistry after 8 days of culture. Thus the compounds were evaluated at 1 nM, 10 nM, 100 nM and 1 μM and were compared with the activity of dibutyryl cyclic AMP (db-cAMP) used as the reference product.
# In order to evaluate more quantitatively the activity of the compounds of the invention, neurite growth per cell was measured using the Neurite Outgrowth software developed by Explora Nova. A minimum of 60 neurons per condition were photographed and studied, and the results were then averaged and normalized by the number of neurons considered.
# [1] = 100 nM, survival of TH+ dopaminergic neurons after 8 days of culture
Structure (SMILES),Diff (qualitative assessment of neuron differentiation) (100 nM),viability at 0.1 µM [1] [%],"neuroprotective activity (percentage of survival of dopaminergic neurons), in words, versus reference product db-cAMP (dopaminergic neurons, 8 days of culture)","dose-response of effect on survival of dopaminergic neurons (1 nM, 10 nM, 100 nM and 1 μM, FIG. 2)",% Neurons relative to the control ±SEM [1] [%]
"CCCCCCCCCCCCCCC(=O)Nc1ccc2nccnc2c1 [Compound F1, Nr-(quinoxalin-6-yl)pentadecanamide]",+++,125 ± 5.5,,,
"CCCCCCCCCCCCCCC(=O)Nc1ccc2nc(C)cnc2c1 [Compound F2, N-(2-methylquinoxalin-6-yl)pentadecanamide]",+++,120 ± 3.1,,,
"CCCCCCCCCCCCCCC(=O)Nc1ccc2ncc(CCCC)nc2c1 [Compound F3, N-(3-butylquinoxalin-6-yl)pentadecanamide]",++,114 ± 3.8,,,
"CCCCCCCCCCCCCCC(=O)Nc1ccc2nc(CCCCCC)c(CCCC)nc2c1 [Compound F4, N-(2-hexyl-3-butylquinoxalin-6-yl)pentadecanamide]",++,101 ± 2.2,,,
"CCCCCCCCCCCCCCCNc1ccc2nccnc2c1 [Compound G1, N-(quinoxalin-6-yl)pentadecanamine]",+++,131 ± 10.9,,,
"CCCCCCCCCCCCCCCNc1ccc2nc(C)cnc2c1 [Compound G2, N-(2-methylquinoxalin-6-yl)pentadecanamine]",+++,135 ± 4.4,,,
"CCCCCCCCCCCCCCCNc1ccc2ncc(CCCC)nc2c1 [Compound G3, N-(3-butylquinoxalin-6-yl)pentadecanamine]",++,113 ± 7,,,
"CCCCCCCCCCCCCCCNc1ccc2nc(CCCCCC)c(CCCC)nc2c1 [Compound G4, N-(2-hexyl-3-butylquinoxalin-6-yl)pentadecanamine]",++,111 ± 5.3,,,
"OCCCCCCCCCCCCCCCNc1ccc2nccnc2c1 [Compound G5, 15-hydroxy-N-(quinoxalin-6-yl)pentadecylamine]",++,130 ± 7,,,
"OCCCCCCCCCCCC#Cc1ccc2ccccc2n1 [Compound K2, 13-(quinolin-2-yl)tridec-12-yn-1-ol]",++,121 ± 3.1,,,
"C#CC(O)CCCCCCCCCCCCCCc1ccc2ccccc2n1 (stereo not drawn) [Compound N′3, 17-(quinolin-2-yl)heptadec-1-yn-3-ol]",,,equal to or greater than that of the reference product,,
"C#CC(O)CCC#Cc1cnc2ccccc2c1 (stereo not drawn) [Compound Z1, reference compound]",−,98.2 ± 6.3,,zero at all the concentrations tested,
"C#CC(O)CCCCc1cnc2ccccc2c1 (stereo not drawn) [Compound Z2, reference compound]",+,118 ± 6.1,,,
"CCCCC#Cc1cnc2ccccc2c1 [Compound Z3, reference compound]",−,104 ± 4.2,,,
"CCCC(=O)Nc1ncnc2c1ncn2[C@@H]1O[C@@H]2COP(=O)(O)O[C@H]2[C@H]1OC(=O)CCC [db-cAMP, dibutyryl cyclic AMP, reference compound]",+++,,,,149.9 ± 3.6
